Experimental data published in PubChem BioAssay (NCI).
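Method: 48-hour compound exposure of cells in 96-well plates, five concentrations, linear interpolation of endpoints. At the TGI there is no net growth.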

Tests used:
Test in all cases: growth of human tumour cells (NCI), 48 h
786-0 renal = test system: 786-0 renal
A549 NSCLC = test system: A549 NSCLC
ACHN renal = test system: ACHN renal
CAKI-1 renal = test system: CAKI-1 renal
CCRF-CEM leukemia = test system: CCRF-CEM leukemia
COLO 205 colon = test system: COLO 205 colon
DLD-1 colon = test system: DLD-1 colon
DMS 114 small cell lung = test system: DMS 114 small cell lung
DMS 273 small cell lung = test system: DMS 273 small cell lung
EKVX NSCLC = test system: EKVX NSCLC
HCC-2998 colon = test system: HCC-2998 colon
HCT-116 colon = test system: HCT-116 colon
HCT-15 colon = test system: HCT-15 colon
HL-60(TB) leukemia = test system: HL-60(TB) leukemia
HOP-18 NSCLC = test system: HOP-18 NSCLC
HOP-62 NSCLC = test system: HOP-62 NSCLC
HOP-92 NSCLC = test system: HOP-92 NSCLC
HT29 colon = test system: HT29 colon
IGROV1 ovarian = test system: IGROV1 ovarian
K-562 leukemia = test system: K-562 leukemia
KM12 colon = test system: KM12 colon
KM20L2 colon = test system: KM20L2 colon
LOX IMVI melanoma = test system: LOX IMVI melanoma
LXFL 529 NSCLC = test system: LXFL 529 NSCLC
M14 melanoma = test system: M14 melanoma
M19-MEL melanoma = test system: M19-MEL melanoma
MALME-3M melanoma = test system: MALME-3M melanoma
MOLT-4 leukemia = test system: MOLT-4 leukemia
NCI-H226 lung = test system: NCI-H226 lung
NCI-H460 lung = test system: NCI-H460 lung
OVCAR-3 ovarian = test system: OVCAR-3 ovarian
OVCAR-4 ovarian = test system: OVCAR-4 ovarian
OVCAR-5 ovarian = test system: OVCAR-5 ovarian
OVCAR-8 ovarian = test system: OVCAR-8 ovarian
RPMI-8226 leukemia = test system: RPMI-8226 leukemia
RXF 393 renal = test system: RXF 393 renal
RXF-631 renal = test system: RXF-631 renal
SF-295 CNS = test system: SF-295 CNS
SK-MEL-2 melanoma = test system: SK-MEL-2 melanoma
SK-MEL-28 melanoma = test system: SK-MEL-28 melanoma
SK-MEL-5 melanoma = test system: SK-MEL-5 melanoma
SK-OV-3 ovarian = test system: SK-OV-3 ovarian
SN12C renal = test system: SN12C renal
SNB-19 CNS = test system: SNB-19 CNS
SNB-75 CNS = test system: SNB-75 CNS
SNB-78 CNS = test system: SNB-78 CNS
SW-620 colon = test system: SW-620 colon
TK-10 renal = test system: TK-10 renal
U251 CNS = test system: U251 CNS
UACC-257 melanoma = test system: UACC-257 melanoma
UACC-62 melanoma = test system: UACC-62 melanoma
UO-31 renal = test system: UO-31 renal
XF 498 CNS = test system: XF 498 CNS
NCI-H23 lung = test system: NCI-H23 lung
SF-268 CNS = test system: SF-268 CNS
SF-539 CNS = test system: SF-539 CNS
SR leukemia = test system: SR leukemia

## Cc1ccc(C(=O)NCCN(C)C)c2nc3ccccc3cc12
786-0 renal
  TGI: > 100 µM
A549 NSCLC
  TGI: 4.53 µM
ACHN renal
  TGI: 10.3 µM
CAKI-1 renal
  TGI: 25.6 µM
CCRF-CEM leukemia
  TGI: > 100 µM
COLO 205 colon
  TGI: > 100 µM
DLD-1 colon
  TGI: > 100 µM
DMS 114 small cell lung
  TGI: > 100 µM
DMS 273 small cell lung
  TGI: 2 µM
EKVX NSCLC
  TGI: 4.76 µM
HCC-2998 colon
  TGI: 13.4 µM
HCT-116 colon
  TGI: 10.9 µM
HCT-15 colon
  TGI: 6.5 µM
HL-60(TB) leukemia
  TGI: > 100 µM
HOP-18 NSCLC
  TGI: 9.89 µM
HOP-62 NSCLC
  TGI: > 100 µM
HOP-92 NSCLC
  TGI: > 100 µM
HT29 colon
  TGI: 11.3 µM
IGROV1 ovarian
  TGI: > 100 µM
K-562 leukemia
  TGI: > 100 µM
KM12 colon
  TGI: 6.91 µM
KM20L2 colon
  TGI: 6 µM
LOX IMVI melanoma
  TGI: 10.4 µM
LXFL 529 NSCLC
  TGI: > 100 µM
M14 melanoma
  TGI: > 100 µM
M19-MEL melanoma
  TGI: > 100 µM
MALME-3M melanoma
  TGI: > 100 µM
MOLT-4 leukemia
  TGI: > 100 µM
NCI-H226 lung
  TGI: 3.85 µM
NCI-H460 lung
  TGI: 14.7 µM
OVCAR-3 ovarian
  TGI: 6.79 µM
OVCAR-4 ovarian
  TGI: > 100 µM
OVCAR-5 ovarian
  TGI: 8.71 µM
OVCAR-8 ovarian
  TGI: 7.99 µM
RPMI-8226 leukemia
  TGI: > 100 µM
RXF 393 renal
  TGI: 3.29 µM
RXF-631 renal
  TGI: 12 µM
SF-295 CNS
  TGI: 3.8 µM
SK-MEL-2 melanoma
  TGI: > 100 µM
SK-MEL-28 melanoma
  TGI: 5.46 µM
SK-MEL-5 melanoma
  TGI: 2.95 µM
SK-OV-3 ovarian
  TGI: > 100 µM
SN12C renal
  TGI: 10.2 µM
SNB-19 CNS
  TGI: 13.6 µM
SNB-75 CNS
  TGI: 3.54 µM
SNB-78 CNS
  TGI: > 100 µM
SW-620 colon
  TGI: 3.52 µM
TK-10 renal
  TGI: 12.2 µM
U251 CNS
  TGI: 4.09 µM
UACC-257 melanoma
  TGI: 6.01 µM
UACC-62 melanoma
  TGI: > 100 µM
UO-31 renal
  TGI: 11.1 µM
XF 498 CNS
  TGI: 3.95 µM

## O=C(CC1(O)C(=O)Nc2c(Cl)cc(Cl)cc21)c1ccc(F)cc1 (stereo not given)
786-0 renal
  TGI: 38.9 µM
A549 NSCLC
  TGI: > 100 µM
ACHN renal
  TGI: > 100 µM
CAKI-1 renal
  TGI: > 100 µM
COLO 205 colon
  TGI: 43 µM
DLD-1 colon
  TGI: > 100 µM
DMS 114 small cell lung
  TGI: 58.9 µM
DMS 273 small cell lung
  TGI: > 100 µM
EKVX NSCLC
  TGI: > 100 µM
HCC-2998 colon
  TGI: > 100 µM
HCT-116 colon
  TGI: > 100 µM
HCT-15 colon
  TGI: > 100 µM
HOP-18 NSCLC
  TGI: > 100 µM
HOP-62 NSCLC
  TGI: > 100 µM
HOP-92 NSCLC
  TGI: > 100 µM
HT29 colon
  TGI: 70.1 µM
IGROV1 ovarian
  TGI: 67.6 µM
KM12 colon
  TGI: > 100 µM
KM20L2 colon
  TGI: > 100 µM
LOX IMVI melanoma
  TGI: 66.5 µM
LXFL 529 NSCLC
  TGI: > 100 µM
M14 melanoma
  TGI: > 100 µM
M19-MEL melanoma
  TGI: 34 µM
MALME-3M melanoma
  TGI: > 100 µM
NCI-H226 lung
  TGI: > 100 µM
NCI-H23 lung
  TGI: 70.9 µM
NCI-H460 lung
  TGI: > 100 µM
OVCAR-3 ovarian
  TGI: 68.6 µM
OVCAR-4 ovarian
  TGI: 52.6 µM
OVCAR-5 ovarian
  TGI: > 100 µM
OVCAR-8 ovarian
  TGI: 47.6 µM
RPMI-8226 leukemia
  TGI: 61.4 µM
RXF 393 renal
  TGI: 88.3 µM
RXF-631 renal
  TGI: > 100 µM
SF-268 CNS
  TGI: > 100 µM
SF-295 CNS
  TGI: > 100 µM
SF-539 CNS
  TGI: 57.4 µM
SK-MEL-2 melanoma
  TGI: > 100 µM
SK-MEL-28 melanoma
  TGI: > 100 µM
SK-OV-3 ovarian
  TGI: > 100 µM
SN12C renal
  TGI: > 100 µM
SNB-19 CNS
  TGI: > 100 µM
SNB-75 CNS
  TGI: 63.8 µM
SNB-78 CNS
  TGI: > 100 µM
SR leukemia
  TGI: 57 µM
SW-620 colon
  TGI: > 100 µM
TK-10 renal
  TGI: > 100 µM
U251 CNS
  TGI: 97.1 µM
UACC-257 melanoma
  TGI: 65 µM
UACC-62 melanoma
  TGI: > 100 µM
UO-31 renal
  TGI: > 100 µM
XF 498 CNS
  TGI: 39.9 µM
